From US8247183B2, “Compositions and methods for diagnosis and treatment of tumors” (The United States of America, as represented by the …, priority 2006, dated 2012)

What was measured:
Human MMP-9 = biological target: T1, Human MMP-9 (Homo sapiens, UniProt P14780); assay: OPN cleavage assay with MMP-9 and MMP inhibitors; format: biochemical; settings: Western blot after 1-hour digestion at 37° C.; EDTA 10 mM, MMP-9 inhibitor I 2 μM, TIMP-1 0.1 μM
T1 construct: purchased Calbiochem, CA
Description: OPN cleavage assays were performed as follows. Human MMP-9 (Calbiochem, CA) was incubated at 37° C. for 3 hours with recombinant human OPN (R&D systems, MN) at an optimized ratio (5:1 substrate:enzyme) in a buffered solution (200 mM NaCl, 5 mM CaCl, 50 mM Tris-C1, pH 7.5). Digested OPN was analyzed by 16% tris-glycine SDS-PAGE followed by colloidal coomassie blue staining (SimplyBlue™, Invitrogen, CA). Separate cleavage reactions (2 μg OPN) were transferred to PDVF membranes for amino-end terminal microsequencing.
For western blot analysis, MMP-9-digested OPN samples and whole cell lysates (50 μg) were transferred to 0.22 um PVDF membranes and probed with a polyclonal antibody generated to a 14-residue peptide just downstream of the residue 169 thrombin cleavage site ([sequence]; amino acids 169-183 of SEQ ID NO: 2) (Abcam, MA). HEK-293 cell lysates were probed with an anti-FLAG antibody (Sigma, Mo.). Immuno-reactive proteins were detected by chemilluminescence (ECL, GE Healthcare Life Sciences, NJ).

SMMC-7721 SC2 cells = assay: Matrigel invasion assay with short overlapping peptides of OPN-5kD; format: cell-based, human; settings: 36 hours; for effect on OPN-5kD induced invasion, separate addition: in conjunction with OPN-5kD, 1:1 molar, 2 μM each; for cellular invasion relative to media alone treated cells: peptide alone, 2 μM, p<0.05
Text: A 44 residue peptide corresponding to the OPN-5kD fragment (SEQ ID NO: 4), was synthesized and purified >97% by HPLC (EZBiolabs, IN). A series of short peptides spanning the region of residues 167-210 of OPN (SEQ ID NO: 2) were generated as follows. Eight small overlapping peptides spanning the OPN-5kD peptide were similarly synthesized to >75% purity (p1=[…], amino acids 167-176 of SEQ ID NO: 2; p2=[…], amino acids 172-181 of SEQ ID NO: 2; p3=[…], amino acids 177-186 of SEQ ID NO: 2; p4=[…], amino acids 182-191 of SEQ ID NO: 2; p5=[…], amino acids 187-196 of SEQ ID NO: 2; p6=[…], amino acids 192-201 of SEQ ID NO: 2; p7=[…], amino acids 197-206 of SEQ ID NO: 2; and p8=[…] amino acids 202-210 of SEQ ID NO: 2) (EZBiolabs, IN). The lyophilized peptides were resuspended in PBS and applied with cells to the upper wells of Matrigel invasion chambers at equal molar concentrations (2 μM). Invading cells were measured after 36 hours following calcein incorporation as described in the examples above.

SMMC-7721-SC2 cells [1] = assay: Cellular adhesion with exogenous intact or MMP-9 cleaved OPN; format: cell-based, human; settings: GRGDS peptide 400 μM; OPN 250 nM
Description: Cellular adhesion was measured using the following methods. SMMC-7721-SC2 cells were seeded into the wells of a 96-well fluorescent-read plate in serum-free media (6×10^4 cells/well) with human OPN (0-250 nM) with or without prior digestion by MMP-9. Media and MMP-9 alone treated cells were included as controls. A GRGDS blocking peptide (400 μM) was added to separate media control, intact OPN, and MMP-9 cleaved OPN (250 nM) conditions. Non-adherent cells were removed with a PBS wash (100 μl) after one hour and adherent cells were quantified by CyQuant GR dye incorporation (Molecular Probes, OR) and detection at EX485, EM530.

SMMC-7721-SC2 cells [2] = assay: Migration assay of cells transfected with OPN constructs; format: cell-based, human; settings: vector controls, 24, 36, 48 hours
Description: (§1) Migration and invasion assays were performed as follows. Transfected SMMC-7721-SC2 cells (transfected with 5 μg plasmid DNA) were allowed to recover in 5% serum containing media and were re-counted prior to dilution in serum-free media. Cells were seeded (5×10^4) into the upper chambers of Matrigel coated 8 um pore membranes (HTSTM Fluoroblok tumor invasion system, BD Biosciences, MA) or uncoated […] pore membranes (HTSTM Fluoroblok insert system, BD Biosciences, MA). Media containing serum (5%) was added to the lower chambers as a chemotactic agent. Blocking antibodies to either the integrin αVβ3 receptor (clone LM609, Chemicon, CA) or a common determinant of the CD44 receptors (clone A020, Calbiochem, CA) were added to the upper chambers (4 μg/ml) at the time of cell seeding. Migrated cells were labeled with calcein AM (Molecular Probes, OR) at 37° C. for 1 hour, and fluorescence was measured at 24, 36, and 48 hours (EX 490 nm, EM 530 nm).

SMMC-7721-SC2 cells [3] = assay: Adhesion of cells transfected with OPN expression constructs; format: cell-based, human; settings: 30-60 minutes
Description: To determine the affect of OPN fragments on adhesion, the following methods were used. SMMC-7721-SC2 cells (1×10^6) were trypsinized (E-PET, Biosource, CA) and transfected with the four OPN expression constructs shown in FIG. 3A and empty vector DNA (5 μg) (50-60% efficiency) using optimized conditions (Nucleofection, AMAXA, MD) and plated to 6-well plates. After a 24-hour recovery period, the cells were trypsinized and seeded by equal numbers (6×10^4) into fluorescent-read 96-well plates in serum-free media. Non-adherent cells were removed with a PBS wash after 2-60 minutes and fluorescence was quantified at EX485, EM530.

SMMC-7721-SC2 cells [4] = assay: Matrigel invasion assay (OPN constructs, blocking antibodies, OPN-5kD peptide); format: cell-based, human; settings: 36 hours
Description: as §1
Cell invasion was measured as described in Example 4. Briefly, each of the OPN vectors shown in FIG. 3A (5 μg) were separately transfected into SMMC-7721 cells (1×10^6) using optimized conditions (Nucleofection, AMAXA). […] After 36 hours, the invaded cells were labeled with calcein at 37° C. for 1 hour and fluorescence was measured (EX485, EM530).
To determine the effect of blocking antibodies to the integrin aV133 and CD44 receptors on the affect of invasion of HCC cells expression OPN full-length or OPN-5 kD, integrin αVβ3 (Chemicon, CA) or CD44 (Calbiochem, CA) blocking antibodies were added (4 μg/ml) to cells transiently expressing OPN full-length and OPN-5kD. Invading cells were measured at 36 hours following calcein incorporation as described above.
To determine the effect of varying concentrations of the OPN-5kD peptide on invasion of HCC cells, SMMC-7721 cells were exposed to increasing concentrations of the OPN-5kD peptide (0.4 μM, 1 μM and 2 μM) and invading cells were measured after 36 hours following calcein incorporation as described above. […]

T1 sequence (P14780 94-707): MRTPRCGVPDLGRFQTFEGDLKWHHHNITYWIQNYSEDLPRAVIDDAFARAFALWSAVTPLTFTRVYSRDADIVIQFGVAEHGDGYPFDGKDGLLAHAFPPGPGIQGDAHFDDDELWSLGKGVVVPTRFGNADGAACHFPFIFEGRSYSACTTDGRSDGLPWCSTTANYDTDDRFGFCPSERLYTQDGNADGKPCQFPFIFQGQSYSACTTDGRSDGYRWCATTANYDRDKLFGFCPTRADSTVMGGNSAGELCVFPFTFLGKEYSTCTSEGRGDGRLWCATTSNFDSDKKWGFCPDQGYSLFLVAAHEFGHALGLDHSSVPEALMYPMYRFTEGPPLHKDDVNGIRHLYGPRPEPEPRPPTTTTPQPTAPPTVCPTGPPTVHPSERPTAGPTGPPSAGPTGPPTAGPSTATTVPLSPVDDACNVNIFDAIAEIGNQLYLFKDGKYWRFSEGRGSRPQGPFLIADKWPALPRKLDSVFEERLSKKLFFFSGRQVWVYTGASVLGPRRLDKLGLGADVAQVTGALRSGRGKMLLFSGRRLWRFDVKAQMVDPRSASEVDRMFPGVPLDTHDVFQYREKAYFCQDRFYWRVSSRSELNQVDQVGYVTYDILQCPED

With `O=C(O)CN(CCN(CC(=O)O)CC(=O)O)CC(=O)O` [EDTA] the “inhibition of MMP-9 cleavage of OPN (OPN-5kD fragment detection)” value (Human MMP-9) was “partially inhibited”.
For “ELNGAYKAIP (listed as Homo sapiens) [p7]”, the “effect on OPN-5kD induced invasion, separate addition” value (from here on “effect on OPN-5kD induced invasion”) (SMMC-7721 SC2 cells) was “partial reduction in invasion” and the “cellular invasion relative to media alone treated cells” value (SMMC-7721 SC2 cells) was “suppressive effect”.
In the case of GRGDS [GRGDS peptide], the “blocking of intact and cleaved OPN-mediated adhesion” value (SMMC-7721-SC2 cells [1]) is reported as “blocked both intact and cleaved OPN-mediated adhesion”.
For “HMESEELNGA (listed as Homo sapiens) [p6]”, the “effect on OPN-5kD induced invasion” value (SMMC-7721 SC2 cells) was “partial reduction in invasion” and the “cellular invasion relative to media alone treated cells” value (SMMC-7721 SC2 cells) was “suppressive effect”.
With “KKFRRPDIQY (listed as Homo sapiens) [p2]” the “effect on OPN-5kD induced invasion” value (SMMC-7721 SC2 cells) was “insignificant effect”.
“OPN-5kD: MMP-9 cleavage fragment of OPN, residues 167-210; expressed from FLAG-tagged construct” was tested, and the “SMMC-7721-SC2 migration relative to controls” value (SMMC-7721-SC2 cells [2]) was “decreased migration”, the “adhesion after transient over-expression relative to controls, later time points” value (SMMC-7721-SC2 cells [3]) was “decreased adhesion” and the “increase in cellular invasion” value (SMMC-7721-SC2 cells [4]; transfected cells, p=0.001) was > 2 fold.
“OPN-24 kD: OPN fragment residues 211-314; expressed from FLAG-tagged construct” was tested, and the “SMMC-7721-SC2 migration relative to controls” value (SMMC-7721-SC2 cells [2]) was “decreased migration”, the “adhesion after transient over-expression relative to controls, later time points” value (SMMC-7721-SC2 cells [3]) was “decreased adhesion” and the “cellular invasion compared to vector transfected cells” value (SMMC-7721-SC2 cells [4]) was “No significant difference”.
For “PDIQYPDATD (listed as Homo sapiens) [p3]”, the “effect on OPN-5kD induced invasion” value (SMMC-7721 SC2 cells) was “partial reduction in invasion” and the “cellular invasion relative to media alone treated cells” value (SMMC-7721 SC2 cells) was “suppressive effect”.
“full-length OPN: wild-type osteopontin protein (OPN-a) expressed from FLAG-tagged construct” was tested, and the “SMMC-7721-SC2 migration relative to controls” value (SMMC-7721-SC2 cells [2]) was “induced SMMC-7721-SC2 migration”, the “adhesion after transient over-expression relative to controls, later time points” value (SMMC-7721-SC2 cells [3]) was “increased adhesion” and the “cellular invasion compared to vector transfected cells” value (SMMC-7721-SC2 cells [4]) was “slightly increased invasion”.
